One may read the EC50 as the midpoint of the concentration-response curve.

Experimental findings from patent publication US11787785B2 (NOVARTIS AG, priority 2021, dated 2023) are described below.

SMILES strings stand for the structures.

In assay [1] the target is T1, WIZ protein (HiBit-WIZ fusion protein) (Homo sapiens, UniProt O95785+Q96SW2).
T1 construct: expressed in transfected cells
As to the kind of experiment: Quantification of WIZ protein levels in HiBit tag fusion protein assay (WIZ HiBit assay in 293T cells). It is filed as cell-based. The following applies: for Dmax at 25 µM / remaining activity at 25 µM: HEK-293T, 293T cells; for Dmax at 25 µM: 100 − Amax, read-out: % degradation of WIZ (100 − Amax); for remaining activity at 25 µM: DMSO-normalized, curve-fitted percentage of WIZ-HiBit remaining at 25 uM, read-out: WIZ Amax; for DC50: WIZ HiBit assay in 293T cells, 10-point, 5-fold dose response, highest concentration 25 μM, about 18 hours, read-out: WIZ AC50. An outline of the steps: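 Luminescence after LgBit complementation quantified remaining HiBit-WIZ in lysates of single-copy stable 293T lines. Cells dosed ~18 h at 37 °C with 10-point, 5-fold dilutions (highest 25 μM); DMSO set to 100%, fitted curve gave % remaining at 25 μM (Amax).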
For orientation: With HiBiT, luminescence reflects the tagged protein that the partner subunit can reach.

Another assay relates to Fetal Hemoglobin (HbF). Briefly: Small molecule HbF induction assay (mPB CD34+ cells erythroid differentiated, flow cytometry). It is filed as cell-based. The following applies: Homo sapiens, 168 h; for Emax: 7 days with compound, baseline DMSO approximately 30-40%, read-out: HbF Amax (highest percentage of cells staining positive for HbF in the fitted dose-response curve); for EC50: erythroid differentiated in presence of compound for 7 days, flow cytometry. Here is the method: Cryopreserved primary human CD34^+ hematopoietic stem and progenitor cells were obtained from AllCells, LLC. The CD34^+ cells were isolated from the peripheral blood of healthy donors after mobilization by administration of granulocyte colony-stimulating factor. Cells were differentiated ex vivo toward the erythroid lineage using a 2-phase culture method. In the first phase, cells were cultured in StemSpan™ Serum-Free Expansion Media (SFEM) ([…] Technologies Inc.) supplemented with rhSCF (50 ng/mL, Peprotech®, Inc.), rhIL-6 (50 ng/mL, Peprotech®, Inc.), rhIL-3 (50 ng/mL, Peprotech®, Inc.), and rhFlt3L (50 ng/mL, Peprotech®, Inc.), and 1× antibiotic-antimycotic (Life Technologies, Thermo Fisher Scientific) for 6 days at 37° C. with 5% CO2. During the second phase, cells were cultured in erythroid differentiation media at 5,000 cells/mL in the presence of compound for 7 days at 37° C. with 5% CO2. Erythroid Differentiation Media is comprised of IMDM (Life Technologies) supplemented with insulin (10 μg/mL, Sigma Aldrich), heparin (2 U/mL Sigma Aldrich), holo-transferrin (330 μg/mL, Sigma Aldrich), human serum AB (5%, Sigma Aldrich), hydrocortisone (1 μM, […] Technologies), rhSCF (100 ng/mL, Peprotech®, Inc.), rhIL-3 (5 ng/mL, Peprotech®, Inc.), rhEPO (3 U/mL, Peprotech®, Inc.), and 1× antibiotic-antimycotic. All compounds were dissolved and diluted into dimethylsulfoxide (DMSO) and were added to culture media for a final concentration of 0.3% DMSO for testing in a 7-point, 1:3 dilution series starting at 30 uM.
Staining and Flow Cytometry
For viability analysis, samples were washed and resuspended in phosphate-buffered saline (PBS) and stained with LIVE/DEAD™ Fixable Violet Dead Cell Stain Kit (Life Technologies, L34963) for 20 minutes. Cells were then washed again with PBS and resuspended in PBS supplemented with 2% fetal bovine serum (FBS), and 2 mM EDTA to prepare for cell surface marker analysis. Cells were labeled with allophycocyanin-conjugated CD235a (1:100, BD Biosciences, 551336) and Brilliant Violet-conjugated CD71 (1:100, BD Biosciences, 563767) antibodies for 20 minutes. For analysis of cytoplasmic Fetal Hemoglobin (HbF), cells were fixed and permeabilized using the Fixation (BioLegend®, 420801) and Permeabilization Wash (BioLegend®, 421002) Buffers according to the manufacturer's protocol. During the permeabilization step, cells were stained with phycoerythrin-conjugated or FITC-conjugated HbF-specific antibody (1:10-1:25, Invitrogen™, MHFH04-4) for 30 minutes. Stained cells were washed with phosphate-buffered saline before analysis on the FACSCanto™ II flow cytometer or LSRFortessa™ (BD Biosciences). Data analysis was performed with FIowJo™ Software (BD Biosciences).
HbF Induction Activity of Compounds (Table 2)
mPB CD34+ cells were expanded for 6 days, then erythroid differentiated in the presence of compound for 7 days. Cells were fixed, stained and analyzed by flow cytometry. […] HbF Amax=the highest percentage of cells staining positive for HbF (% HbF+ cells) in the fitted dose-response curve. The baseline % HbF+ cells for DMSO-treated cells is approximately 30-40%.
A general note: In flow cytometry, cells or beads pass a laser one at a time.

T1 sequence (O95785 whole entry, the tested form may be a part): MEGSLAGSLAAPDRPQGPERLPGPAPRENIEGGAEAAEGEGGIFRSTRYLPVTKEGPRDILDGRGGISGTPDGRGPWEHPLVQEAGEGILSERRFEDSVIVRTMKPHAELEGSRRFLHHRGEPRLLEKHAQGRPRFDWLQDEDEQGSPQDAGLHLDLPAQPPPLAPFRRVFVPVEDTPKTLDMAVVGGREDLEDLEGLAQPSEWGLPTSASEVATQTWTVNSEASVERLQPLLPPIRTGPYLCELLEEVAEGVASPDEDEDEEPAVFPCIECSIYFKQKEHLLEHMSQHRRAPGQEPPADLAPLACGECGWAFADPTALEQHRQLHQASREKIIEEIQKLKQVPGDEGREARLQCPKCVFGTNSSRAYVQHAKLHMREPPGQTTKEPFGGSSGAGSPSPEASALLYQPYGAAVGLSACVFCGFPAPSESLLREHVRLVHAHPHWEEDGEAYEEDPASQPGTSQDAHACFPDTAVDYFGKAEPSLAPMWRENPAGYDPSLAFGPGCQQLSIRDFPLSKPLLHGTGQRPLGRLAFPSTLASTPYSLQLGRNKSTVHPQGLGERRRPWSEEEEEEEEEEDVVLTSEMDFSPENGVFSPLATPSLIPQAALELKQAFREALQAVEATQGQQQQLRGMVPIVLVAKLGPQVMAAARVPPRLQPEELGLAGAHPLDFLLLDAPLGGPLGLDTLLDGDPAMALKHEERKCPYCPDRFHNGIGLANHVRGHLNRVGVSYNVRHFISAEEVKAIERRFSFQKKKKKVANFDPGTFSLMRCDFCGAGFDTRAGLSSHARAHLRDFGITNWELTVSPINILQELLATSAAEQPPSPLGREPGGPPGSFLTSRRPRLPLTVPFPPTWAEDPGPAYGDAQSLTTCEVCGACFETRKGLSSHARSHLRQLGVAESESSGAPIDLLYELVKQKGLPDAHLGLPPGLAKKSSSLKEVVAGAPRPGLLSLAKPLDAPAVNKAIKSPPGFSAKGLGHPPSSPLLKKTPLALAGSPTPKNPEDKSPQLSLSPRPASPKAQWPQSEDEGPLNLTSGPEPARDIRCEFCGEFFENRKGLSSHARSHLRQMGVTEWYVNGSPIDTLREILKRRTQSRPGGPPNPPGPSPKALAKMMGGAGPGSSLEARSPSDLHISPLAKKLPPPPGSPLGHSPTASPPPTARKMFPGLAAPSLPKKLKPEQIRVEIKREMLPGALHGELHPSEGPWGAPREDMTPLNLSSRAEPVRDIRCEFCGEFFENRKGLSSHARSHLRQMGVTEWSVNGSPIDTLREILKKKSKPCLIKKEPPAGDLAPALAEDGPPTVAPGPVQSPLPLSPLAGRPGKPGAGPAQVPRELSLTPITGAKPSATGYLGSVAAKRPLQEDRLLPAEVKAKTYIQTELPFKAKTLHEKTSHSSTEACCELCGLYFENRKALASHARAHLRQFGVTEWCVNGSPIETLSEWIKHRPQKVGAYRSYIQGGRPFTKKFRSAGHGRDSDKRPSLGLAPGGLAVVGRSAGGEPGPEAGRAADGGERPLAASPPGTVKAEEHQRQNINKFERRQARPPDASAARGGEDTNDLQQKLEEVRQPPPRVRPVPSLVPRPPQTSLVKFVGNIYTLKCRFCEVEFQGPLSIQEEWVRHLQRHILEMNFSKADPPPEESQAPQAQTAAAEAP
T1 sequence (Q96SW2 whole entry, the tested form may be a part): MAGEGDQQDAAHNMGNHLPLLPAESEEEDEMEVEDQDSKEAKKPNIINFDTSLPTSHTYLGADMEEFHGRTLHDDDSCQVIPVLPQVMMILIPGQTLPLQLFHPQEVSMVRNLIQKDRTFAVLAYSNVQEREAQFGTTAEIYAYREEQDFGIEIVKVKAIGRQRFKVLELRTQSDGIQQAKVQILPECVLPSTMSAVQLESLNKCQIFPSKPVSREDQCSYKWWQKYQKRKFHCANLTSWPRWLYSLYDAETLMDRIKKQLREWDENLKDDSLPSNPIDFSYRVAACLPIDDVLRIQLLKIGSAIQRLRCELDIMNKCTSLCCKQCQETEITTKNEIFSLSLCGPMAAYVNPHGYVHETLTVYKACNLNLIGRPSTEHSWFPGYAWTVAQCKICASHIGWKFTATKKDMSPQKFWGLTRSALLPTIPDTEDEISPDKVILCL
T1 sequence (Q16531 whole entry partner, the tested form may be a part): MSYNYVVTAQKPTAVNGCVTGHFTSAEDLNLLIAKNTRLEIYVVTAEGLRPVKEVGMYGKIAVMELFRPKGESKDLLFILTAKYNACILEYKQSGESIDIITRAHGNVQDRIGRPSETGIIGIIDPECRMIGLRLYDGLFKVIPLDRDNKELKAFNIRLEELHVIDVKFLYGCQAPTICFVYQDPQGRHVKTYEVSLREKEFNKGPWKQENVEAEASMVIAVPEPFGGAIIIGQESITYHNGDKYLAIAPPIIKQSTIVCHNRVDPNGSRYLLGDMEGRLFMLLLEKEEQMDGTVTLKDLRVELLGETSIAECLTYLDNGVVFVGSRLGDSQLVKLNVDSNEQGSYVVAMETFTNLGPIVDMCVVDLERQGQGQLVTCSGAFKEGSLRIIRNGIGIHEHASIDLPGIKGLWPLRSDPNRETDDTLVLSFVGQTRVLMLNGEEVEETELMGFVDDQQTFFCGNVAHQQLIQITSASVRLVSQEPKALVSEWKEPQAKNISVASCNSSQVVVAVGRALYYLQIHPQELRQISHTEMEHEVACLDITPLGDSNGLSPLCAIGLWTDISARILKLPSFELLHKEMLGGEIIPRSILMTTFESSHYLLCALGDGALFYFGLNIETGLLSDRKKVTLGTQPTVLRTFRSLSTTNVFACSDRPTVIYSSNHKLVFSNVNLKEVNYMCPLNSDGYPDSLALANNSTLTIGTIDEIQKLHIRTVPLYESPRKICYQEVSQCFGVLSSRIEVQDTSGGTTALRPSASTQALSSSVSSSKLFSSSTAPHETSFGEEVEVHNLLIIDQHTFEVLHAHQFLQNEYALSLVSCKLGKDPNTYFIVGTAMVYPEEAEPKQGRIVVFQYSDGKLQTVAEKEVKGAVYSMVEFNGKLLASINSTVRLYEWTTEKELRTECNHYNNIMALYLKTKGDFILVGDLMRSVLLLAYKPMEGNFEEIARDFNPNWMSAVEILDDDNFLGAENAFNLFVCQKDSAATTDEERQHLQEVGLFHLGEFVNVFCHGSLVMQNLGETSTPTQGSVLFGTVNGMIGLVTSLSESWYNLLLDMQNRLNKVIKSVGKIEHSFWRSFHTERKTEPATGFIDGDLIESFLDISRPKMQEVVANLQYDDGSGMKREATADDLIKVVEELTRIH

For the compound `C[C@H]1C[C@H](Cc2ccn3ncc(N4CCC(=O)NC4=O)c3c2)CCN1CC1CCC(F)(F)CC1` [Example 141, 1-(5-(((2S,4R)-1-((4,4-difluorocyclohexyl)methyl)-2-methylpiperidin-4-yl)methyl)pyrazolo[1,5-a]pyridin-3-yl)dihydropyrimidine-2,4(1H,3H)-dione], in assay [1], the Dmax at 25 µM turned out to be 91%, the remaining activity at 25 µM came out at 9% and the DC50 is 2 nM. Besides, in the assay on Fetal Hemoglobin (HbF), the Emax came out at 90% and the EC50 turned out to be 6 nM.

On to `CO[C@H]1CC[C@H](CN2CCN(Cc3ccn4ncc(N5CCC(=O)NC5=O)c4c3)C[C@@H]2C)CC1` [Example 210, 1-(5-(((S)-4-(((1r,4S)-4-methoxycyclohexyl)methyl)-3-methylpiperazin-1-yl)methyl)pyrazolo[1,5-a]pyridin-3-yl)dihydropyrimidine-2,4(1H,3H)-dione], for which, in assay [1], the Dmax at 25 µM was 86%, the remaining activity at 25 µM came out at 14% and the DC50 was found to be 16 nM. Besides, in the assay on Fetal Hemoglobin (HbF), the Emax came out at 86% and the EC50 is 64 nM.

As to `C[C@H]1C[C@H](Cc2ccn3ncc(N4CCC(=O)NC4=O)c3c2)CCN1CC1CCOCC1` [Example 142], in assay [1], the Dmax at 25 µM amounted to 89%, the remaining activity at 25 µM came out at 11% and the DC50 is 11 nM. Besides, in the assay on Fetal Hemoglobin (HbF), the Emax was 89% and the EC50 was 38 nM.

As for `O=C1CCN(c2cnn3ccc(CC4CCN(CC5CCOCC5)CC4)cc23)C(=O)N1` [Example 3, 1-(5-((1-((tetrahydro-2H-pyran-4-yl)methyl)piperidin-4-yl)methyl)pyrazolo[1,5-a]pyridin-3-yl)dihydropyrimidine-2,4(1H,3H)-dione], in assay [1], the Dmax at 25 µM was 90%, the remaining activity at 25 µM was 10% and the DC50 turned out to be 20 nM.

Consider `C[C@H]1C[C@H](Cc2ccn3ncc(N4CCC(=O)NC4=O)c3c2)CCN1C[C@H]1CC[C@H](C(F)(F)F)CC1` [Example 305, 1-(5-(((2S,4R)-2-methyl-1-(((1r,4S)-4-(trifluoromethyl)cyclohexyl)methyl)piperidin-4-yl)methyl)pyrazolo[1,5-a]pyridin-3-yl)dihydropyrimidine-2,4(1H,3H)-dione], for which, in assay [1], the Dmax at 25 µM came out at 85%, the remaining activity at 25 µM was found to be 15% and the DC50 was 2 nM.

With `Cc1c(F)cccc1CN1CCC(Cc2ccn3ncc(N4CCC(=O)NC4=O)c3c2)CC1` [Example 42, 1-(5-((1-(3-fluoro-2-methylbenzyl)piperidin-4-yl)methyl)pyrazolo[1,5-a]pyridin-3-yl)dihydropyrimidine-2,4(1H,3H)-dione], in assay [1], the Dmax at 25 µM came to 70%, the remaining activity at 25 µM was found to be 30% and the DC50 amounted to 26 nM.

Consider `O=C1CCN(c2cnn3ccc(CC4CCN(CC5CCCCC5)CC4)cc23)C(=O)N1` [Example 1, 1-(5-((1-(cyclohexylmethyl)piperidin-4-yl)methyl)pyrazolo[1,5-a]pyridin-3-yl)dihydropyrimidine-2,4(1H,3H)-dione], for which, in assay [1], the Dmax at 25 µM is 91%, the remaining activity at 25 µM was 9% and the DC50 amounted to 20 nM.

For the compound `CC1(C)CN(Cc2ccn3ncc(N4CCC(=O)NC4=O)c3c2)CCN1CC1CCCCC1` [Example 231, 1-(5-((4-(cyclohexylmethyl)-3,3-dimethylpiperazin-1-yl)methyl)pyrazolo[1,5-a]pyridin-3-yl)dihydropyrimidine-2,4(1H,3H)-dione], in assay [1], the Dmax at 25 µM is 53%, the remaining activity at 25 µM worked out at 47% and the DC50 stood at 150 nM.

`O=C1CCN(c2cnn3ccc(CC4CN(CC5CCCCC5)C4)cc23)C(=O)N1` [Example 135, 1-(5-((1-(cyclohexylmethyl)azetidin-3-yl)methyl)pyrazolo[1,5-a]pyridin-3-yl)dihydropyrimidine-2,4(1H,3H)-dione]: in assay [1], the Dmax at 25 µM is 26%, the remaining activity at 25 µM was 74% and the DC50 stood at 2100 nM.

Turning to `COc1cccc(CN2CCC(Cc3ccn4ncc(N5CCC(=O)NC5=O)c4c3)CC2)c1` [Example 40, 1-(5-((1-(3-methoxybenzyl)piperidin-4-yl)methyl)pyrazolo[1,5-a]pyridin-3-yl)dihydropyrimidine-2,4(1H,3H)-dione], in assay [1], the Dmax at 25 µM turned out to be 70%, the remaining activity at 25 µM amounted to 30% and the DC50 stood at 52 nM.

`O=C1CCN(c2cnn3ccc(CC4CCN(CC(=O)N5CCCCC5)CC4)cc23)C(=O)N1` [Example 52, 1-(5-((1-(2-oxo-2-(piperidin-1-yl)ethyl)piperidin-4-yl)methyl)pyrazolo[1,5-a]pyridin-3-yl)dihydropyrimidine-2,4(1H,3H)-dione]: in assay [1], the Dmax at 25 µM was 59%, the remaining activity at 25 µM turned out to be 41% and the DC50 is 987 nM.

As for `C[C@H]1C[C@H](Cc2ccn3ncc(N4CCC(=O)NC4=O)c3c2)CCN1CC1CCC1` [Example 146], in assay [1], the Dmax at 25 µM was determined as 82%, the remaining activity at 25 µM was determined as 18% and the DC50 was determined as 51 nM.

In the case of `O=C1CCN(c2cnn3ccc(CC4CCN(CC5CCCC5)CC4)cc23)C(=O)N1` [Example 2, 1-(5-((1-(cyclopentylmethyl)piperidin-4-yl)methyl)pyrazolo[1,5-a]pyridin-3-yl)dihydropyrimidine-2,4(1H,3H)-dione], in assay [1], the Dmax at 25 µM is 91%, the remaining activity at 25 µM was determined as 9% and the DC50 was determined as 23 nM.

In the case of `O=C1CCN(c2cnn3ccc(CC4CCN(CC5CC(F)(F)C5)CC4)cc23)C(=O)N1` [Example 32, 1-(5-((1-((3,3-difluorocyclobutyl)methyl)piperidin-4-yl)methyl)pyrazolo[1,5-a]pyridin-3-yl)dihydropyrimidine-2,4(1H,3H)-dione], in assay [1], the Dmax at 25 µM was 82%, the remaining activity at 25 µM is 18% and the DC50 is 23 nM.

Consider `O=C1CCN(c2cnn3ccc(CC4CCN(C(=O)C5(C(F)(F)F)CC5)CC4)cc23)C(=O)N1` [Example 100], for which, in assay [1], the Dmax at 25 µM was determined as 42%, the remaining activity at 25 µM was found to be 58% and the DC50 is 755 nM.

For `C[C@H]1CN(Cc2ccn3ncc(N4CCC(=O)NC4=O)c3c2)CCN1C[C@H]1CCC(F)(F)C1` [Example 320, 1-(5-(((S)-4-(((S)-3,3-difluorocyclopentyl)methyl)-3-methylpiperazin-1-yl)methyl)pyrazolo[1,5-a]pyridin-3-yl)dihydropyrimidine-2,4(1H,3H)-dione], in assay [1], the Dmax at 25 µM was 78%, the remaining activity at 25 µM stood at 21% and the DC50 was determined as 18 nM.

In the case of `O=C1CCN(c2cnn3ccc(CN4CCN(CCC5CCCCC5)C(=O)C4)cc23)C(=O)N1` [Example 243, 1-(5-((4-(2-cyclohexylethyl)-3-oxopiperazin-1-yl)methyl)pyrazolo[1,5-a]pyridin-3-yl)dihydropyrimidine-2,4(1H,3H)-dione], in assay [1], the Dmax at 25 µM was 13%, the remaining activity at 25 µM was determined as 87% and the DC50 came to 3060 nM.
